{"source": "patent US8895497B2", "about": "“Cathepsin S inhibitors” (DCB-USA, LLC, priority 2009, dated 2014)", "key": {"[1]": {"system": "human A2058 melanoma cells", "assay": "Migration/invasion of A2058 melanoma cells", "format": "cell-based", "protocol": "(§1) The cancer cell migration assay was performed in 96-wll-MultiScreen-MIC plates (Millipore) with 8 μm-pore-sized polycarbonate membrane. Briefly, highly-metastatic human lung adenocarcinoma CL1-5 cells were placed onto the upper chamber (2×10^4 cells/well) with tested compounds in complete medium (RPMI 1640 medium containing 1% FBS) and only medium placed onto the lower chamber. The chamber culture was incubated for 24 h at 37° C. and, then, the non-migrated cells were washed off the upper surface of the membrane. The migrated cells on the bottom side were dissociated with Cell Detachment Buffer (Chemicon, Inc.), lysed and stained for nucleic acids with CyQuant GR dye (Molecular Probes). The signal intensities were measured using a fluorescence reader (VICTORTIM 1420 Multilabel Counter, Wallac) at excitation wavelength of 485 nm and emission wavelength of 535 nm (1 sec). The result was presented as the average values from three independent experiments performed in duplicates.\n(§2) Similarly, Compounds 1 and 118 were tested against human A2058 melanoma cells and pancreatic cancer cells."}, "A2058 melanoma cells": {"system": "A2058 melanoma cells", "assay": "In vivo assay, mice inoculated with A2058 melanoma cells", "parameters": "species or system BALB/cAnN-Foxn1nu/CrlNarl female mice", "protocol": "BALB/cAnN-Foxn1nu/CrlNarl female mice were inoculated with A2058 melanoma cells. On day 7, 12 mice were treated i.v. with Compound 1 in DMSO (mg/kg) and 8 mice were treated with DMSO as control. The treatment was continued for 72 days. The mice were sacrificed and their lungs were weighted."}, "pancreatic cancer cells": {"system": "pancreatic cancer cells", "assay": "Migration/invasion of pancreatic cancer cells", "format": "cell-based, human", "protocol": "as §1, §2"}}, "data": [{"smiles": "CCOC(=O)CNC(=O)C(=O)[C@H](COCc1ccccc1)NC(=O)[C@H](CC(C)C)NC(=O)c1cccc2c1C(=O)c1ccccc1-2", "note": "(stereo in doubt) [Compound 1, Ethyl 2-(4-(benzyloxy)-3-[((2R)-4-methyl-2-[(9-oxo-9H-1-fluorenyl)carbonyl]aminopropanoyl)amino]-2-oxobutanoylamino)acetate]", "values": [{"measurement": "inhibition of migratory and invasice abilities of A2058 melanoma cells", "setting": "[1]", "result": "effectively inhibited migratory and invasice abilities"}, {"measurement": "lung weights", "setting": "A2058 melanoma cells; A2058 inoculated mice, i.v. in DMSO from day 7, treatment continued for 72 days, DMSO control 0.671 g", "result": 0.471, "unit": "g"}, {"measurement": "inhibition of cancer growth in A2058 inoculated mice", "setting": "A2058 melanoma cells; i.v. in DMSO, 72 days", "result": "effectively inhibited cancer growth"}]}, {"smiles": "O=C(NCCC1CCCCC1)C(O)[C@H](CCc1ccccc1)NC(=O)[C@H](CC1CCCCC1)NC(=O)N1CCOCC1", "note": "(stereo partly shown) [Compound 118]", "values": [{"measurement": "inhibition of migratory and invasice abilities of pancreatic cancer cells", "setting": "pancreatic cancer cells", "result": "effective inhibited migratory and invasice abilities"}]}]}
